Reference: publication PMC6940896, “Development of a Highly Efficient Hybrid Peptide That Increases Immunomodulatory Activity Via the TLR4-Mediated Nuclear Factor-κB Signaling Pathway” (International Journal of Molecular Sciences, 2019)
No end group written: not given here.

Assays:
RAW264.7 cells = assay: Cytokine production in RAW264.7 macrophages (ELISA); type: cell-based, mouse; details: RAW264.7, 10 μg/mL peptide, 12 h (Figure 3 legend; method says 24 h), n = 5
Procedure: RAW264.7 cells were stimulated with or without 10 μg/mL peptides for 24 h at 37 °C in a humidified incubator with 5% CO2. Levels of TNF-α, IL-6, and IL-1β in the culture supernatant were measured using enzyme-linked immunosorbent assay (ELISA) kits according to the manufacturer’s instructions

[1] = Ex vivo stability in plasma; type: in vitro ADME; details: rat plasma, in vitro, 37 °C, HPLC, log-linear regression; mean ± SEM of three biological replicates; read-out: t1/2, half-life in plasma (converted)
Procedure: The samples were collected into pre-chilled tubes containing 1 mL of acidic acetone (hydrochloric acid/acetone/H2O, 1:40:5, by volume). Subsequently, the mixture was centrifuged at 2 × 10^4 rpm at 4 °C for 20 min. The precipitates were dried in vacuo. The dried precipitates were dissolved in 0.5 mL of 1 M acetic acid. The peptide analysis was carried out according to the protocol for the study of Tα1 using HPLC [51]. The half-lives of the target peptides were calculated by a logarithm-linear regression analysis of the peptide concentrations.

peritoneal macrophages = assay: Peritoneal macrophage phagocytosis (neutral red uptake) in CTX-immunosuppressed mice; type: in vivo, mouse; details: peritoneal macrophages of mice, OD 540 nm, CTX 80 mg/kg ip days 1-3, peptide 10 mg/kg ip days 4-10, control group 55.67%, n = 12
Procedure: Peritoneal macrophages were aseptically obtained from the different groups of mice by peritoneal lavage with 5 mL ice-cold phosphate-buffered saline (PBS). The peritoneal macrophages were further isolated by incubating peritoneal exudate cells at 37 °C in a moist atmosphere (5% CO2, 95% air) for 3 h to allow the cells to adhere. The adherent cells were washed twice and collected as peritoneal macrophages.
The phagocytic capacity of the peritoneal macrophages was measured by the neutral red uptake method [52]. […] The OD was measured using a microplate reader at 540 nm. The phagocytic rate was calculated in the following way:(4) hagocytic rate (%)=OD540(sample)/OD540(control) ×100% where OD540 (sample) is the absorbance at 540 nm by peptide-treated cells and OD540 (control) is the absorbance at 540 nm by the cells without peptides treated.

TLR4-NF-κB pathway = assay: Western blot of TLR4-NF-κB pathway proteins in CTX-treated mice; type: in vivo, mouse; details: CTX-treated mice with or without LTAa, n = 3
Procedure: Sigma-Aldrich, St. Louis, MO, USA) group, a LL-37 group, a Tα1 group, and a LTAa group. For the first 3 days, CTX (80 mg/kg mouse weight) was administered intraperitoneally once daily to establish the immunosuppressed animal model. From days 4 to 10 (7 days), peptides (10 mg/kg mouse weight) were administered intraperitoneally each day. The CTX group was only treated with CTX, and the control group was given sterile saline. The dose volume was 200 μL. Twenty-four hours after the last dose, the mice were killed and their tissues and blood collected for analysis. The body weight index was calculated in the following way:(2) Index (%)=final body weight-[…] body weight/initial body weight ×100% Whole protein in the serum was collected using a whole-protein extraction kit (Nanjing KeyGEN Biotech, Nanjing, China) according to the manufacturer's instructions. The protein concentration was measured using a bicinchoninic acid kit (Nanjing KeyGEN Biotech). The different proteins were separated by sodium dodecyl sulfate polyacrylamide gel electrophoresis and transferred onto polyvinylidene difluoride membranes (Bio-Rad). […]

half-life [1]: 4.2 ± 1.13 h
Sequence: IGKEFKRIVQRIKDFLRNLVPRTEKEKKEVVE [LTAa]
TNF-α, IL-6 and IL-1β production/secretion (RAW264.7 cells): remarkable increases
macrophage phagocytic rate (peritoneal macrophages): significantly higher phagocytic rates than those in the Tα1- or LL-37-treated groups
TLR4, MyD88 and TRAF6 expression (TLR4-NF-κB pathway): increasing
